Measurements from ChEMBL document CHEMBL3774320, “SAR exploration at the C-3 position of tetrahydro-β-carboline sstr3 antagonists” (Bioorg Med Chem Lett, 2016).

Experiments:
Rattus norvegicus [1] = assay: Half life in rat at 1 mg/kg, iv; conditions: in vivo
[2] = Half life in mouse at 4 mg/kg, iv; conditions: in vivo
[3] = Clearance in mouse plasma at 4 mg/kg, iv
in vivo [4] = conditions: mouse, po, 10 mg/kg
Rattus norvegicus [5] = organism: Rattus norvegicus; conditions: in vivo, po, 2 mg/kg
[6] = biological target: T1, Somatostatin receptor type 3 (Homo sapiens, UniProt P32745)
T1 sequence (P32745 whole entry): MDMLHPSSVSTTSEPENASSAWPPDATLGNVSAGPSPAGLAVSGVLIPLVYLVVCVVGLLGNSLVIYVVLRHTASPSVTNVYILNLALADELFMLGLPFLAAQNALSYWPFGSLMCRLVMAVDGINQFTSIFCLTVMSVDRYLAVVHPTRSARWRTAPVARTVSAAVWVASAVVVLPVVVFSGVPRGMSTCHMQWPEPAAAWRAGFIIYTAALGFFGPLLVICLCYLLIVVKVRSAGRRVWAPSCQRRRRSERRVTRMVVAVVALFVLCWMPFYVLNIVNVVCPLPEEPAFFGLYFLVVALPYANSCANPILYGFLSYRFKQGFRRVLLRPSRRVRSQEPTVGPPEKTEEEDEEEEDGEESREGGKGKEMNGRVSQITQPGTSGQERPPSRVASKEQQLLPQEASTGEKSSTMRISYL
Description: Antagonist activity at human somatostatin receptor type 3 assessed as inhibition of cAMP levels

Mus musculus = organism: Mus musculus; conditions: in vivo, po, 10 mg/kg
Rattus norvegicus [7] = assay: Volume of distribution at steady state in rat at 1 mg/kg, iv and at 2 mg/kg, po; conditions: in vivo
[8] = Volume of distribution at steady state in mouse at 4 mg/kg, iv and at 10 mg/kg, po; conditions: in vivo
[9] = biological target: T1, Somatostatin receptor type 3; remark: listed apart in the source
Description: Binding affinity to human somatostatin receptor type 3

[10] = biological target: Voltage-gated inwardly rectifying potassium channel KCNH2 (Homo sapiens, UniProt Q12809); assay: Binding affinity to human ERG
Chain of Voltage-gated inwardly rectifying potassium channel KCNH2 (Q12809 whole entry): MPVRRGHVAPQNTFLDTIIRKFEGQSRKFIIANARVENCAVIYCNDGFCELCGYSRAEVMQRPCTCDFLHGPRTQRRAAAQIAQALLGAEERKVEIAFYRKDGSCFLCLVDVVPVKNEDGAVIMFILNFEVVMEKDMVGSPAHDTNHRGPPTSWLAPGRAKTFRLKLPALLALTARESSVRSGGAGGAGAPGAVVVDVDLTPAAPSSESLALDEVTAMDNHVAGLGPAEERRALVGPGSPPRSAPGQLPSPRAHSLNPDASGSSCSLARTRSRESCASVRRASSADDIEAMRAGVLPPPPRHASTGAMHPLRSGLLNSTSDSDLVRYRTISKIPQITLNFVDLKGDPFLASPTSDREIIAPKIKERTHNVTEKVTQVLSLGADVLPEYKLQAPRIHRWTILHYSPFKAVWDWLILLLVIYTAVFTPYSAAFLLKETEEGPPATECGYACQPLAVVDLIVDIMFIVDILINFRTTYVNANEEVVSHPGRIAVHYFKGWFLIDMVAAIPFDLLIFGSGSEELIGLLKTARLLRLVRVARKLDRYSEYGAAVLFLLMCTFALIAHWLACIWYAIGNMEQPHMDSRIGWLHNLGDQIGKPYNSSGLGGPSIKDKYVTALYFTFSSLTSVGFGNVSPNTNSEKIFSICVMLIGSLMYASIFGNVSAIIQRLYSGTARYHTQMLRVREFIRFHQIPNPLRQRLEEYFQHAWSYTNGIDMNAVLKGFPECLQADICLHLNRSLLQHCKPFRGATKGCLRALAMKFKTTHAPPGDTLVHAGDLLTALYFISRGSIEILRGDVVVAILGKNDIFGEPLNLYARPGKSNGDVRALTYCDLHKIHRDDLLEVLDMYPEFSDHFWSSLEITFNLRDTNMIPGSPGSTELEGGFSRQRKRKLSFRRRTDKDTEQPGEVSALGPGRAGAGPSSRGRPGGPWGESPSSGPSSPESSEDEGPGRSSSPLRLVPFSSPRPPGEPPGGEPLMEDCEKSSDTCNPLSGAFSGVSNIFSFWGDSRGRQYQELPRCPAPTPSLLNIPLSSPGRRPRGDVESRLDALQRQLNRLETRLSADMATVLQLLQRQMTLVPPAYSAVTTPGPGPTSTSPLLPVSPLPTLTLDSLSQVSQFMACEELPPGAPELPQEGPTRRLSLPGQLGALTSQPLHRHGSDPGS

in vivo [11] = conditions: rat, po, 2 mg/kg

t1/2 (Rattus norvegicus [1]): 0.96 h | half-life [2]: 1.3 h | clearance [3]: 77 mL/min/kg | bioavailability (in vivo [4]): 58% | AUC/dose (Rattus norvegicus [5]): 0.28 µM·h/mg/kg | EC50 [6]: 17 nM | AUC/dose (Mus musculus): 0.31 µM·h/mg/kg | Vdss (Rattus norvegicus [7]): 13.2 L/kg | Vd [8]: 4.6 L/kg | IC50 [9]: 23 nM | bioavailability (in vivo [11]): 49%
Compound: CC1(c2nc(-c3ccccc3)c[nH]2)Cc2c([nH]c3ccccc23)C(C2CCOCC2)N1 (stereo in doubt; 6a)
IC50 [10]: 2180 nM
